Reference: ChEMBL document CHEMBL1201862, “PubChem BioAssay data set” (2004)
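1) Cells in 96-well plates. 2) Compound, 48 h, 5 concentrations. 3) Linear interpolation between surrounding doses. 4) Unreached endpoint = highest concentration. GI50: concentration for 50% inhibition of growth.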 Active and inactive are the calls of the source. No stated cut-off is given here; in the data, active = GI50 up to about 1.1 µM and inactive = higher.

Key:
Test in all cases: NCI anticancer screen, dose series, 48 h
UO-31 = system: UO-31
DMS-114 = system: DMS-114
SNB-19 = system: SNB-19
HCC 2998 = system: HCC 2998
HCT-116 = system: HCT-116
CAKI-1 = system: CAKI-1
A498 = system: A498
LXFL 529 = system: LXFL 529
SK-OV-3 = system: SK-OV-3
OVCAR-4 = system: OVCAR-4
SN12C = system: SN12C
SNB-75 = system: SNB-75
HOP-62 = system: HOP-62
M19-MEL = system: M19-MEL
NCI-H226 = system: NCI-H226
ACHN = system: ACHN
OVCAR-3 = system: OVCAR-3
SF-268 = system: SF-268
786-0 = system: 786-0
DMS-273 = system: DMS-273
SF-539 = system: SF-539
SK-MEL-2 = system: SK-MEL-2
IGROV-1 = system: IGROV-1
SR = system: SR
NCI-H460 = system: NCI-H460
DLD-1 = system: DLD-1
K562 = system: K562
SNB-78 = system: SNB-78
TK-10 = system: TK-10
SK-MEL-5 = system: SK-MEL-5
U-251 = system: U-251
UACC-62 = system: UACC-62
OVCAR-8 = system: OVCAR-8
RXF 631 = system: RXF 631
A549 = system: A549
MOLT-4 = system: MOLT-4
UACC-257 = system: UACC-257
Malme-3M = system: Malme-3M
SK-MEL-28 = system: SK-MEL-28
HL-60 = system: HL-60
RXF 393 = system: RXF 393
CCRF-CEM = system: CCRF-CEM
RPMI-8226 = system: RPMI-8226
HCT-15 = system: HCT-15
COLO 205 = system: COLO 205
KM-20L2 = system: KM-20L2
SW-620 = system: SW-620
HOP-18 = system: HOP-18
NCI-H522 = system: NCI-H522
KM12 = system: KM12
M14 = system: M14
HT-29 = system: HT-29
HOP-92 = system: HOP-92
NCI-H23 = system: NCI-H23
OVCAR-5 = system: OVCAR-5
EKVX = system: EKVX
SF-295 = system: SF-295

COC(=O)CC1CCN(C#N)CC1CC[N+](=O)[O-] (stereo not drawn)
GI50 (UO-31): > 100 µM (inactive)
GI50 (DMS-114): > 100 µM (inactive)
GI50 (SNB-19): > 100 µM (inactive)
GI50 (HCC 2998): > 100 µM (inactive)
GI50 (HCT-116): > 100 µM (inactive)
GI50 (CAKI-1): > 100 µM (inactive)
GI50 (A498): > 100 µM (inactive)
GI50 (LXFL 529): > 100 µM (inactive)
GI50 (SK-OV-3): > 100 µM (inactive)
GI50 (OVCAR-4): > 100 µM (inactive)
GI50 (SN12C): > 100 µM (inactive)
GI50 (SNB-75): > 100 µM (inactive)
GI50 (HOP-62): > 100 µM (inactive)
GI50 (M19-MEL): > 100 µM (inactive)
GI50 (NCI-H226): > 100 µM (inactive)
GI50 (ACHN): > 100 µM (inactive)
GI50 (OVCAR-3): > 100 µM (inactive)
GI50 (SF-268): > 100 µM (inactive)
GI50 (786-0): > 100 µM (inactive)
GI50 (DMS-273): > 100 µM (inactive)
GI50 (SF-539): > 100 µM (inactive)
GI50 (SK-MEL-2): > 100 µM (inactive)
GI50 (IGROV-1): > 100 µM (inactive)
GI50 (SR): > 100 µM (inactive)
GI50 (NCI-H460): > 100 µM (inactive)
GI50 (DLD-1): > 100 µM (inactive)
GI50 (K562): > 100 µM (inactive)
GI50 (SNB-78): > 100 µM (inactive)
GI50 (TK-10): > 100 µM (inactive)
GI50 (SK-MEL-5): > 100 µM (inactive)
GI50 (U-251): > 100 µM (inactive)
GI50 (UACC-62): > 100 µM (inactive)
GI50 (OVCAR-8): > 100 µM (inactive)
GI50 (RXF 631): > 100 µM (inactive)
GI50 (A549): > 100 µM (inactive)
GI50 (MOLT-4): > 100 µM (inactive)
GI50 (UACC-257): > 100 µM (inactive)
GI50 (Malme-3M): > 100 µM (inactive)
GI50 (SK-MEL-28): > 100 µM (inactive)
GI50 (HL-60): > 100 µM (inactive)
GI50 (RXF 393): > 100 µM (inactive)
GI50 (CCRF-CEM): > 100 µM (inactive)
GI50 (RPMI-8226): > 100 µM (inactive)
GI50 (HCT-15): > 100 µM
GI50 (COLO 205): > 100 µM (inactive)
GI50 (KM-20L2): > 100 µM (inactive)
GI50 (SW-620): > 100 µM (inactive)
GI50 (HOP-18): > 100 µM (inactive)
GI50 (NCI-H522): > 100 µM (inactive)
GI50 (KM12): > 100 µM (inactive)
GI50 (M14): > 100 µM (inactive)

CCOc1ccc2c(c1)[n+]([O-])c(-c1ccc([N+](=O)[O-])cc1)c(N)[n+]2[O-]
GI50 (UO-31): 43.1 µM (inactive)
GI50 (DMS-114): 29.6 µM (inactive)
GI50 (SNB-19): > 100 µM (inactive)
GI50 (HCT-116): 62.2 µM (inactive)
GI50 (CAKI-1): > 100 µM (inactive)
GI50 (A498): > 100 µM (inactive)
GI50 (LXFL 529): > 100 µM (inactive)
GI50 (SK-OV-3): > 100 µM (inactive)
GI50 (HT-29): > 100 µM (inactive)
GI50 (OVCAR-4): > 100 µM (inactive)
GI50 (SN12C): > 100 µM (inactive)
GI50 (SNB-75): 66.4 µM (inactive)
GI50 (HOP-62): > 100 µM (inactive)
GI50 (M19-MEL): > 100 µM (inactive)
GI50 (NCI-H226): > 100 µM (inactive)
GI50 (ACHN): > 100 µM (inactive)
GI50 (OVCAR-3): > 100 µM (inactive)
GI50 (SF-268): > 100 µM (inactive)
GI50 (786-0): > 100 µM (inactive)
GI50 (DMS-273): > 100 µM (inactive)
GI50 (SF-539): > 100 µM (inactive)
GI50 (SK-MEL-2): > 100 µM (inactive)
GI50 (IGROV-1): > 100 µM (inactive)
GI50 (SR): 67 µM (inactive)
GI50 (NCI-H460): > 100 µM (inactive)
GI50 (DLD-1): > 100 µM (inactive)
GI50 (K562): > 100 µM (inactive)
GI50 (SNB-78): > 100 µM (inactive)
GI50 (HOP-92): > 100 µM (inactive)
GI50 (SK-MEL-5): > 100 µM (inactive)
GI50 (U-251): > 100 µM (inactive)
GI50 (OVCAR-8): > 100 µM (inactive)
GI50 (RXF 631): > 100 µM (inactive)
GI50 (A549): > 100 µM (inactive)
GI50 (MOLT-4): 52.2 µM (inactive)
GI50 (UACC-257): > 100 µM (inactive)
GI50 (NCI-H23): > 100 µM (inactive)
GI50 (Malme-3M): > 100 µM (inactive)
GI50 (SK-MEL-28): > 100 µM (inactive)
GI50 (HL-60): 96.8 µM (inactive)
GI50 (OVCAR-5): > 100 µM (inactive)
GI50 (RXF 393): > 100 µM (inactive)
GI50 (EKVX): > 100 µM (inactive)
GI50 (CCRF-CEM): 49.7 µM (inactive)
GI50 (COLO 205): > 100 µM (inactive)
GI50 (KM-20L2): > 100 µM (inactive)
GI50 (SW-620): > 100 µM (inactive)
GI50 (HOP-18): > 100 µM (inactive)
GI50 (SF-295): > 100 µM (inactive)
GI50 (NCI-H522): 56.4 µM (inactive)
GI50 (KM12): > 100 µM (inactive)
GI50 (M14): > 100 µM (inactive)
